Four compounds from US8623661B2, “Iron chelating agent, method for producing same, method for determining amount of iron ions and method for trapping iron ions” (National University Corporation Asahikawa Medical College, priority 2008, dated 2014) can be followed below.

What all share (format): binding
In assay [1] the target is T1, transferrin iron complex (holo-Transferrin (hTf), human) (Homo sapiens, UniProt P02787).
T1 construct: purchased Sigma Corporation T0665-50MG
Nature of the assay: Evaluation D: capture of iron ions from transferrin iron complex. To be noted: for hTf residual ratio (%): relative to non-treated holo-Transferrin, 24 hours with 5 mM chelator solution; for Absorbance (466 nm): transferrin fraction after 24 hours at room temperature with 5 mM chelator solution and 50 μM transferrin iron complex solution, ultrafiltration. On the procedure:
Evaluation was carried out by the following evaluation method D with respect to properties whether iron ions were captured from the transferrin iron complex (transferrin iron complex in which transferrin is chelated to iron ions) by the iron chelating agent according to Examples 1 to 2.
The iron chelating agent according to Example 1 was dissolved in 1×D-PBS (pH 7.2) to prepare an iron chelating agent solution (“Fe-Ser•Na (5 mM)”) having an iron chelating agent concentration of 5 mM, in the same manner as the preparation method of the iron chelating agent in evaluation A of the iron chelating agent.
Further, as described above, the iron chelating agent according to Example 2 was dissolved in 1×D-PBS (pH 7.2) to prepare an iron chelating agent solution (“Fe-His•Na (5 mM)”) having an iron chelating agent concentration of 5 mM.
Further, 800 mM HEDTA solution as the iron chelating agent according to Comparative Example 3 was prepared as described above. 13.76 g of crystals were taken in a 50 mL conical tube, 25 mL of Milli-Q water was added and dissolution performed, and then adjustment to pH 7.0 was performed using concentrated hydrochloric acid (35 to 37%) and the total amount was adjusted to 50 mL using Milli-Q water (HEDTA solution (800 mM)). HEDTA solution (“HEDTA solution (5 mM)”) having a concentration of HEDTA of 5 mM was prepared using 1×D-PBS (pH 7.2).
Further, 800 mM solution (pH 7.0) was prepared by using NTA2Na and NTA3Na as iron chelating agents according to Comparative Example 1 as described above. 9.4 g of NTA2Na was dissolved in Milli-Q water and the total volume was made up to 50 mL (referred to as “NTA2Na solution (800 mM)” in some cases). Meanwhile, 11.0 g of NTA3Na was dissolved in Milli-Q water and the total volume was made up to 50 mL (“NTA3Na solution (800 mM)”). NTA2Na solution (800 mM) (pH 6.3) and NTA3Na solution (800 mM) (pH 11.3) were mixed to produce 800 mM of NTA solution with pH 7.0. NTA solution (“NTA solution (5 mM)”) having a concentration of NTA of 5 mM was prepared by using 1×D-PBS (pH 7.2).
A commercially available transferrin iron complex (holo-Transferrin (hTf), human, Code T0665-50MG, Lot 095K1633, manufactured by Sigma Corporation) was dissolved in 1×D-PBS (pH 7.2) to prepare a transferrin iron complex solution having a concentration of iron ions (iron ions which are transferrin-bound iron) of 50 μM.
50 μl of 50 μM transferrin iron complex solution was taken in a 1.5 mL sample tube, 50 μl of each of iron chelating agent solutions (Fe-Ser•Na (5 mM), Fe-His•Na (5 mM), NTA solution (5 mM), HEDTA solution (5 mM)) was added thereto and left at room temperature under light shielding for 24 hours. 50 μl of various reaction liquids was taken in a centrifugal ultrafiltration unit (trade name “Amicon Ultra-4 Ultracel-30k” UFC8030, manufactured by Millipore Corporation), and 450 μl of 1×D-PBS (pH 7.2) was added thereto, centrifugation was carried out at 3,500 rpm and 20° C. for 30 minutes, and transferrin and each low molecular chelating agents were separated (first time). After centrifugation, the filtrate was discarded. 450 μl of 1×D-PBS (pH 7.2) was added again to the solution (about 50 μl) containing transferrin concentrated in a unit and centrifugation was carried out with the same conditions (second time). A solution containing transferrin concentrated in a unit was recovered after the second time of centrifugation and the absorbance at the wavelength of 466 nm was measured using a spectrophotometer (trade name “Spectrophotometer DU 640”, manufactured by Beckman Coulter).

Assay [2] concerns iron citrate complex ammonium salt (FAC). Nature of the assay: Evaluation C: chelating ability in MOPS/acetonitrile solvent, FAC solution. Here is the method: (§1) Evaluation was carried out by the following evaluation method C as to whether or not the iron chelating agent according to Examples 1 to 3 had chelating ability with iron in 3-morpholinopropanesulfonic acid (C7H15NO4S;MOPS) and acetonitrile solution as solvents used in high performance liquid chromatography (HPLC).
(§2) 2.09 g of morpholinopropanesulfonic acid (C7H15NO4S; FW=209.26, Code 341-01801, Lot PX013, manufactured by Dojindo/Wako Corporation) was added to a 100 mL Erlenmeyer flask, 80 mL of ultrapure water (pure water produced by an ultrapure water production system manufactured by Millipore Corporation (Milli-Q); “Milli-Q water”) was added thereto and dissolved [pH 4.15 (24.4° C.)]. To this solution, 1N sodium hydroxide solution (1 mol/1 sodium hydroxide solution, Code 192-02175, Lot SEP7274, manufactured by Wako Pure Chemicals Industries) was added in 100 μl portions, the pH was adjusted to 7.0 and further Milli-Q water was made up to 100 mL in a measuring cylinder, whereby 100 mL of MOPS solution (pH 6.99) was prepared.
(§3) An iron chelating agent solution having an iron chelating agent concentration of 50 mM was prepared with respect to the iron chelating agent according to Examples 1 to 3, in the same manner as the preparation method of the iron chelating solution in evaluation A of the iron chelating agent.
(§4) Further, 100 mM of MOPS solution (pH6.99) prepared by the preparation method of the MOPS solution was used.
(§5) Furthermore, a stock solution of acetonitrile (C2H3N, FW=41.05, Code 347-06641, Lot WPI96, manufactured by Dojindo/Wako corporation) was used.
(§6) 13.8 mL of Milli-Q water was taken in a 50 mL conical tube, 1.2 mL of each of the iron chelating agent solutions (Fe-Ser•Na (50 mM), Fe-His•Na (50 mM), Fe-Glu•Na (50 mM)) according to the iron chelating agents of Examples 1 to 3 was added, 1.0 mL of 100 mM MOPS solution was added thereto, and a further 4.0 mL of acetonitrile solution was added to produce an iron chelating solution using MOPS. The iron chelating agent solutions using MOPS and iron chelating agent according to Examples 1 to 3 were defined respectively as Fe-Ser•Na (MOPS solution)” (iron chelating agent according to
(§7) Example 1), “Fe-His•Na (MOPS solution)” (iron chelating agent according to Example 2), and “Fe-Glu•Na(MOPS solution)” (iron chelating agent according to Example 3).
An iron citrate complex ammonium salt solution (FAC solution (20 mM)) having a concentration of iron ions of 20 mM and an iron citrate complex ammonium salt solution (FAC solution (2 mM)) having a concentration of iron ions of 2 mM were prepared, in the same manner as the preparation method of the iron citrate complex ammonium solution in evaluation A of the iron chelating agent.
FAC solution (20 mM) was added to and mixed with each of the iron chelating agent solutions [Fe-Ser•Na (MOPS solution), Fe-His•Na (MOPS solution), Fe-Glu•Na (MOPS solution)] using MOPS.

The test system of assay [3] is iron nitrilotriacetate complex (Fe-NTA). Briefly: Evaluation C: chelating ability in MOPS/acetonitrile solvent, Fe-NTA solution. Here is the method:
as §1, §2, §3, §4, §5, §6, §7
Further, iron nitrilotriacetate complex solution (“Fe-NTA solution (20 mM)”) having a concentration of iron ions of 20 mM and iron nitrilotriacetate complex solution (“Fe-NTA solution (2 mM)”) having a concentration of iron ions of 2 mM were prepared, in the same manner as the preparation method of iron nitrilotriacetate complex solution in evaluation B of the iron chelating agent.
Further, Fe-NTA solution (20 mM) was added to and mixed with each of the iron chelating agent solutions [Fe-Ser•Na (MOPS solution), Fe-His•Na (MOPS solution), Fe-Glu•Na (MOPS solution)] using MOPS. […] Further, Fe-NTA solution (2 mM) was added and mixed thereto as described above.

[4] abbreviates: FAC solution (2 mM) added to chelating agent MOPS solution (MOPS, acetonitrile).
[5] abbreviates: FAC solution (20 mM) added to chelating agent MOPS solution (MOPS, acetonitrile).
Where [6] appears, read: Fe-NTA solution (2 mM) added to chelating agent MOPS solution (MOPS, acetonitrile).
Setting [7] is: Fe-NTA solution (20 mM) added to chelating agent MOPS solution (MOPS, acetonitrile).

T1 sequence (P02787 20-698, one chain of several): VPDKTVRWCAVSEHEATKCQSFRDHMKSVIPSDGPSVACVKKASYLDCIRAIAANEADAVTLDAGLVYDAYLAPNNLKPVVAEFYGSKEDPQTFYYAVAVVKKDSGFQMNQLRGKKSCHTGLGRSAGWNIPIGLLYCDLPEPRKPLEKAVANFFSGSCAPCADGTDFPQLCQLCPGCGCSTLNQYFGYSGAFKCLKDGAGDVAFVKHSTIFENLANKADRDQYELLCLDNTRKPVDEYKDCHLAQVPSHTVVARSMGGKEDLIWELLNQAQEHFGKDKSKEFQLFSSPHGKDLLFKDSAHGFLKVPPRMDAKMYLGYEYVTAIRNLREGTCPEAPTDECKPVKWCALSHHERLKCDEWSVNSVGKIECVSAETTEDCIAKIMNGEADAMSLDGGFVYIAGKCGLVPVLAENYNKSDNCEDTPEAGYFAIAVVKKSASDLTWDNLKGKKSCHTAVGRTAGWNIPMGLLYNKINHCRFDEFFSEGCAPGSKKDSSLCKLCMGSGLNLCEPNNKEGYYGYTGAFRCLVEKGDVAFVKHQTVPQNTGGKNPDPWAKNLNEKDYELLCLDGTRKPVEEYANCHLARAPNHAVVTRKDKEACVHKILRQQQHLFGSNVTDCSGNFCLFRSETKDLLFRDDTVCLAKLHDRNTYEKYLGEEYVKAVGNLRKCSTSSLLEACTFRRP

Regarding `O=C(O)CN(CC(=O)O)CC(=O)O` [Comparative Example 1, nitrilotriacetic acid, reference compound], in assay [1], the “hTf residual ratio (%)” value turned out to be 79.59% and the “Absorbance (466 nm)” value is 0.0589.

With `O=C(O)C(Cc1c[nH]cn1)NCc1ccccc1O` (centres unmarked) [Example 2, o-[(1-carboxy-2-(1H-imidazol-4-yl)ethyl)-amino-methyl]-phenol], the “colour of the solution after mixing” value in assay [2] (setting [4]), in assay [2] (setting [5]), in assay [3] (setting [6]) and in assay [3] (setting [7]) was “dark brown-colored” each time. In assay [1], the “hTf residual ratio (%)” value came out at 83.78%. For the same compound, the “Absorbance (466 nm)” value in assay [1] was 0.0620.

On to `NC(=O)CCC(NCc1ccccc1O)C(=O)O` (centres unmarked) [Example 3, o-[(1-carboxy-2-carbamoylmethylethyl)-amino-methyl]-phenol], for which the “colour of the solution after mixing” value in assay [2] (setting [4]), in assay [2] (setting [5]), in assay [3] (setting [6]) and in assay [3] (setting [7]) was “dark brown-colored” each time.

Take “N-(2-hydroxyethyl)-ethylenediamine triacetic acid [Comparative Example 3, reference compound]”: in assay [1], the “hTf residual ratio (%)” value stood at 69.59% and the “Absorbance (466 nm)” value was 0.0515.
